Experimental data from the C3SDB collision cross section collection.

Experiments:
[1] = instrument: TW, calibrated with phosphatidylcholines (ESI+) and phosphatidylethanolamines (ESI-)
[2] = instrument: DT, single field, calibrated with Agilent tune mix (Agilent)
[3] = [M+Na]+; instrument: DT; stepped-field
[4] = instrument: TW, calibrated with phosphatidylcholines (ESI+) and phosphatidylethanolamines (ESI-); remark: listed apart in the source

Structure (SMILES)	collision cross section (N2) ([1]; [M+H]+) [Å²]	collision cross section (N2) ([1]; [M+Na]+) [Å²]	collision cross section (N2) ([1]; [M-H]-) [Å²]	other results
CCCCCC/C=C\CCCCCCCCCC(=O)OC(COC(=O)CCCCCCCCCCCCCCC)COP(=O)([O-])OCC(O)COC(=O)C(C)[NH3+] (stereo not given) [AlaPG(34:1)]	291.7	294.3	–	collision cross section (N2) ([1]; [M+K]+): 293.6 Å²
CCCCCCCCCCCCCC=CCC(=O)OC[C@H](CO[C@@H]1O[C@H](CO[C@H]2O[C@H](CO)[C@H](O)C(O)C2O)[C@H](O)C(O)C1O)OC(=O)CC=CCCCCCCCCCCCCC (stereo not given in full) [DGDG(16:0/18:2)]	–	306.5	301.9	collision cross section (N2) ([1]; [M+CH3COO]-): 312.7 Å²; collision cross section (N2) ([1]; [M+Cl]-): 304.9 Å²; collision cross section (N2) ([1]; [M+NH4]+): 307.5 Å²
CCCCCCCCCCC=CCC=CCC(=O)OC[C@H](CO[C@@H]1O[C@H](CO[C@H]2O[C@H](CO)[C@H](O)C(O)C2O)[C@H](O)C(O)C1O)OC(=O)CC=CCC=CCCCCCCCCCC (stereo not given in full) [DGDG(16:1/18:3)]	–	301.1	301.4	collision cross section (N2) ([1]; [M+Cl]-): 303.2 Å²; collision cross section (N2) ([1]; [M+NH4]+): 303.5 Å²
CCCCCCCC=CCC=CCC=CCC(=O)OC[C@H](CO[C@@H]1O[C@H](CO[C@H]2O[C@H](CO)[C@H](O)C(O)C2O)[C@H](O)C(O)C1O)OC(=O)CC=CCC=CCC=CCCCCCCC (stereo not given in full) [DGDG(16:3/18:3)]	–	294.9	296.1	collision cross section (N2) ([1]; [M+CH3COO]-): 305.8 Å²; collision cross section (N2) ([1]; [M+Cl]-): 299.9 Å²; collision cross section (N2) ([1]; [M+K]+): 295.2 Å²; collision cross section (N2) ([1]; [M+NH4]+): 296.3 Å²
CCCCCCCCC=CCC=CCC=CCC(=O)OC[C@H](CO[C@@H]1O[C@H](CO[C@H]2O[C@H](CO)[C@H](O)C(O)C2O)[C@H](O)C(O)C1O)OC(=O)CC=CCC=CCC=CCCCCCCCC (stereo not given in full) [DGDG(18:3/18:3)]	–	301.9	303.3	collision cross section (N2) ([1]; [M+CH3COO]-): 313.7 Å²; collision cross section (N2) ([1]; [M+Cl]-): 305.9 Å²; collision cross section (N2) ([1]; [M+K]+): 302.5 Å²; collision cross section (N2) ([1]; [M+NH4]+): 303.2 Å²
CCCCCCCCCCCCCC=CCC(=O)OC[C@H](CO[C@@H]1O[C@H](CO[C@H]2O[C@H](CO)[C@H](O)C(O)C2O)[C@H](O)C(O)C1O)OC(=O)CC=CCCCCCCCCCCCCC (stereo not given in full) [DGDG(34:2)]	–	305.2	–	collision cross section (N2) ([1]; [M+NH4]+): 309 Å²
CCCCCCCCCCCCCCC=CCC(=O)O[C@H](COC(=O)CC=CCCCCCCCCCCCCCCC)CO[C@@H]1O[C@H](CO[C@H]2O[C@H](CO)[C@H](O)C(O)C2O)[C@H](O)C(O)C1O (stereo not given in full) [DGDG(35:2)]	–	–	–	collision cross section (N2) ([1]; M+NH4]+): 315 Å²
CCCCCCCCCCCCCCCC(=O)OCC(CO[C@@H]1O[C@@H](C(=O)O)[C@H](O)[C@H](O)[C@H]1O)OC(=O)CCCCCCCCCCCCCCC (stereo not given in full) [GlcADG(16:0/16:0)]	–	282.6	267.9	collision cross section (N2) ([1]; [M+NH4]+): 286 Å²
CCCCCC/C=C\CCCCCCCCCC(=O)OC(COC(=O)CCCCCCCCCCCCCCC)CO[C@@H]1O[C@@H](C(=O)O)[C@H](O)[C@H](O)[C@H]1O (stereo not given in full) [GlcADG(16:0/18:1)]	–	288.1	272.7	collision cross section (N2) ([1]; [M+NH4]+): 290.1 Å²
CCCCCCCCCCCCCCCC(=O)OCC(COP(=O)([O-])OCC(O)COC(=O)C(N)CCCC[NH3+])OC(=O)CCCCCCCCCCCCCCC (stereo not given) [LysPG(16:0/16:0)]	297	–	291.5	–
CCCCCCCCCCCCCCC(=O)OCC(COP(=O)([O-])OCC(O)COC(=O)C(N)CCCC[NH3+])OC(=O)CCCCCCCCCCCC (stereo not given) [LysPG(28:0)]	284.7	–	–	–
CCCCCCCCCCCCCCC(=O)OCC(COP(=O)([O-])OCC(O)COC(=O)C(N)CCCC[NH3+])OC(=O)CCCCCCCCCCCCCC (stereo not given) [LysPG(30:0)]	290.4	–	–	–
CCCCCC/C=C/CCCCCCCC(=O)OCC(COP(=O)([O-])OCC(O)COC(=O)C(N)CCCC[NH3+])OC(=O)CCCCCCCCCCCCC (stereo not given) [LysPG(30:1)]	287	–	–	–
CCCCCCCCCCCCCCCC(=O)OC(COC(=O)CCCCCCCCCCCCCC)COP(=O)([O-])OCC(O)COC(=O)C(N)CCCC[NH3+] (stereo not given) [LysPG(31:0)]	293.9	–	–	–
CCCCCC/C=C/CCCCCCCC(=O)OCC(COP(=O)([O-])OCC(O)COC(=O)C(N)CCCC[NH3+])OC(=O)CCCCCCCCCCCCCCC (stereo not given) [LysPG(32:1)]	293.5	–	–	–
CCCCCC/C=C\CCCCCCCC(=O)OCC(COP(=O)([O-])OCC(O)COC(=O)C(N)CCCC[NH3+])OC(=O)CCCCCCC/C=C\CCCCCC (stereo not given) [LysPG(32:2)]	290.8	–	–	–
CCCCCCCCCCCCCCCCCCC(=O)OC(COC(=O)CCCCCCCCCCCCCC)COP(=O)([O-])OCC(O)COC(=O)C(N)CCCC[NH3+] (stereo not given) [LysPG(34:0)]	302.5	–	–	–
CCCCCC/C=C\CCCCCCCCCC(=O)OCC(COP(=O)([O-])OCC(O)COC(=O)C(N)CCCC[NH3+])OC(=O)CCCCCCCCCCCCCCCC (stereo not given) [LysPG(35:1)]	303.5	–	–	–
CCCCCCCCCCCCCCCCCCCCC(=O)O[C@H](COC(=O)CCCCCCCCCCC)COP(=O)(O)O [PA(33:0)]	–	–	254.5	–
CCCCCCCCCCCCCCCCCCCCCC(=O)OC[C@H](COP(=O)(O)O)OC(=O)CCCCCCCCCCC [PA(34:0)]	–	–	257.6	–
CCCCCCCCCCCCCCCCCCCCC(=O)O[C@H](COC(=O)CCCCCCCCCCCCC)COP(=O)(O)O [PA(35:0)]	–	–	261	–
CCCCC/C=C\C/C=C\C/C=C\CCCCCCC(=O)O[C@H](COC(=O)CCCCCCC/C=C\C/C=C\CCCCC)COP(=O)(O)OCCN [PE(38:5)]	–	–	–	collision cross section (N2) ([2]; [M+H]+): 280.1 Å²; collision cross section (N2) ([2]; [M-H]-): 271.2 Å²; collision cross section (N2) [3]: 287.2 Å²; collision cross section (N2) ([4]; [M+H]+): 276 Å²; collision cross section (N2) ([4]; [M-H]-): 269.5 Å²
CCCCCCCCCCCCCCCCC(=O)O[C@H](COC(=O)CCCCCCCCCCCCCC)COP(=O)(O)OC[C@@H](O)CO [PG(16:0/16:0)]	–	–	264.5	–
CCCCCCCCCCCCCCC(=O)O[C@H](COC(=O)CCCCCCCCCCCC)COP(=O)(O)OC[C@@H](O)CO [PG(28:0)]	–	–	253.1	–
CCCCCCC/C=C\CCCCCCCC(=O)O[C@H](COC(=O)CCCCCCCCCCCC)COP(=O)(O)OC[C@@H](O)CO [PG(30:1)]	–	–	257.1	–
CCCCCC/C=C\CCCCCCCC(=O)O[C@H](COC(=O)CCCCCCCCCCCCCC)COP(=O)(O)OC[C@@H](O)CO [PG(31:1)]	–	–	260.2	–
